Measured values as given in ChEMBL document CHEMBL5653615 (J Biol Chem, 2013).

What was measured:
[1] = molecular target: Calcium/calmodulin-dependent protein kinase type 1 (Homo sapiens) (UniProt Q14012); assay: Inhibition of human CAMK1a at 18.6 nM by HotSpot assay relative to control
[2] = molecular target: T1, Serine/threonine-protein kinase ULK1 (Homo sapiens) (UniProt O75385); assay: Inhibition of human ULK1 at 18.6 nM by HotSpot assay relative to control
T1 sequence (whole entry): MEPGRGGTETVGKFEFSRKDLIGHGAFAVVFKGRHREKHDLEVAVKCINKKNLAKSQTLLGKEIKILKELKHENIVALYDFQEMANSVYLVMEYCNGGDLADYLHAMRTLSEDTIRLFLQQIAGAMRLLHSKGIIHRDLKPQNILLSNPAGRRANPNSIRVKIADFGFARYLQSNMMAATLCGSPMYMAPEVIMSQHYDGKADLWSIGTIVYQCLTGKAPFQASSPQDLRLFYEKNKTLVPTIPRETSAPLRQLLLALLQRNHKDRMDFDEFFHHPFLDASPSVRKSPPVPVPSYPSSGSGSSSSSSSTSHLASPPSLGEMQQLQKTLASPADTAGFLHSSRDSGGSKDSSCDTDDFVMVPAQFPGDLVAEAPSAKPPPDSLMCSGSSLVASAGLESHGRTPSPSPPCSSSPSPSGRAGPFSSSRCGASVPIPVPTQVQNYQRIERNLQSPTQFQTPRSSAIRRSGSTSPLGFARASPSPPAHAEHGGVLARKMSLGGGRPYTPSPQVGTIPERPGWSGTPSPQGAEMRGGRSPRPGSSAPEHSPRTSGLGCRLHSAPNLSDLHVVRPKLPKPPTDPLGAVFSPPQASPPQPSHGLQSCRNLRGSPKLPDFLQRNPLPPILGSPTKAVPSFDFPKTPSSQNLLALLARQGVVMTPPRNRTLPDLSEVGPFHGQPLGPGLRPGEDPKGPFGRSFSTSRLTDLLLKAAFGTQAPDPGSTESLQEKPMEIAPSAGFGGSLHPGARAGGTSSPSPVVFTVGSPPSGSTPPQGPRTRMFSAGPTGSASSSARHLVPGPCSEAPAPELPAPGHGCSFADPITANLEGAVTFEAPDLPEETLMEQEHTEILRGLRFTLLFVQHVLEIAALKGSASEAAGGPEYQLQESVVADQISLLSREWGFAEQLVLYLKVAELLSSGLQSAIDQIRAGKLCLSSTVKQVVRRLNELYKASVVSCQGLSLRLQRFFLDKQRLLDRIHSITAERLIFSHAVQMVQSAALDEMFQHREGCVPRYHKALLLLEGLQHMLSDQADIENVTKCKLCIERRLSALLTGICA

[3] = molecular target: Mitogen-activated protein kinase 11 (Homo sapiens) (UniProt Q15759); assay: Inhibition of human MAPK11 at 18.6 nM by HotSpot assay relative to control
[4] = molecular target: Serine/threonine-protein kinase Nek6 (Homo sapiens) (UniProt Q9HC98); assay: Inhibition of human NEK6 at 1.82 nM by HotSpot assay relative to control
[5] = molecular target: T2, Ephrin type-A receptor 1 (Homo sapiens) (UniProt P21709); assay: Inhibition of human EPHA1 at 1.82 nM by HotSpot assay relative to control
T2 sequence (whole entry): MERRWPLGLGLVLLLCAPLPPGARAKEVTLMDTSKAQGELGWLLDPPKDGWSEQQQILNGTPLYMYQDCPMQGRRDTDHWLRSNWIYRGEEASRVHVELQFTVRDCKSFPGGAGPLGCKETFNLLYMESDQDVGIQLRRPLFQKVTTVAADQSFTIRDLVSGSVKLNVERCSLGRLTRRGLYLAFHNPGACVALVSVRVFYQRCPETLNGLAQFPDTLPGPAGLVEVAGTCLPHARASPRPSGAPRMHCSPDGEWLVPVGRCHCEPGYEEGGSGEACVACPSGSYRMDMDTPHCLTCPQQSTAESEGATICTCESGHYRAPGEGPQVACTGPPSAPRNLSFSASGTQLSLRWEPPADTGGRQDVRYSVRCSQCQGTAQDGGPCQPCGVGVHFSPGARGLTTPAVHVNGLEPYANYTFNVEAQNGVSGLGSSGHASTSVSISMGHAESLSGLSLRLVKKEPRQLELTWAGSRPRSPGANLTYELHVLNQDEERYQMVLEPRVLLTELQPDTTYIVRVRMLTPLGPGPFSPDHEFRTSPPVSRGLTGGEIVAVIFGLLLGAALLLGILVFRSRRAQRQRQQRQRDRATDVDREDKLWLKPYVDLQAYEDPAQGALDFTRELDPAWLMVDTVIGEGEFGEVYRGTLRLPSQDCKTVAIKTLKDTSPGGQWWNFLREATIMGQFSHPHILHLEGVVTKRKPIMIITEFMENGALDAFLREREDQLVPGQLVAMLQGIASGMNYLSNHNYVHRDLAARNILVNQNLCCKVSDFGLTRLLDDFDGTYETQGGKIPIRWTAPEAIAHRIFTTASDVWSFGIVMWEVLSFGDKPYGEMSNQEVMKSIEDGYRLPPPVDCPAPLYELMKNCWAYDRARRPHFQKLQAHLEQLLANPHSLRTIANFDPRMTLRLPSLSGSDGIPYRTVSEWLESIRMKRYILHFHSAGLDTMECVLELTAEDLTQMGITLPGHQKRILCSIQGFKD

[6] = molecular target: Ephrin type-A receptor 5 (Homo sapiens) (UniProt P54756); assay: Inhibition of human EPHA5 at 1.82 nM by HotSpot assay relative to control
Sequence of Ephrin type-A receptor 5 (Homo sapiens) (P54756 whole entry): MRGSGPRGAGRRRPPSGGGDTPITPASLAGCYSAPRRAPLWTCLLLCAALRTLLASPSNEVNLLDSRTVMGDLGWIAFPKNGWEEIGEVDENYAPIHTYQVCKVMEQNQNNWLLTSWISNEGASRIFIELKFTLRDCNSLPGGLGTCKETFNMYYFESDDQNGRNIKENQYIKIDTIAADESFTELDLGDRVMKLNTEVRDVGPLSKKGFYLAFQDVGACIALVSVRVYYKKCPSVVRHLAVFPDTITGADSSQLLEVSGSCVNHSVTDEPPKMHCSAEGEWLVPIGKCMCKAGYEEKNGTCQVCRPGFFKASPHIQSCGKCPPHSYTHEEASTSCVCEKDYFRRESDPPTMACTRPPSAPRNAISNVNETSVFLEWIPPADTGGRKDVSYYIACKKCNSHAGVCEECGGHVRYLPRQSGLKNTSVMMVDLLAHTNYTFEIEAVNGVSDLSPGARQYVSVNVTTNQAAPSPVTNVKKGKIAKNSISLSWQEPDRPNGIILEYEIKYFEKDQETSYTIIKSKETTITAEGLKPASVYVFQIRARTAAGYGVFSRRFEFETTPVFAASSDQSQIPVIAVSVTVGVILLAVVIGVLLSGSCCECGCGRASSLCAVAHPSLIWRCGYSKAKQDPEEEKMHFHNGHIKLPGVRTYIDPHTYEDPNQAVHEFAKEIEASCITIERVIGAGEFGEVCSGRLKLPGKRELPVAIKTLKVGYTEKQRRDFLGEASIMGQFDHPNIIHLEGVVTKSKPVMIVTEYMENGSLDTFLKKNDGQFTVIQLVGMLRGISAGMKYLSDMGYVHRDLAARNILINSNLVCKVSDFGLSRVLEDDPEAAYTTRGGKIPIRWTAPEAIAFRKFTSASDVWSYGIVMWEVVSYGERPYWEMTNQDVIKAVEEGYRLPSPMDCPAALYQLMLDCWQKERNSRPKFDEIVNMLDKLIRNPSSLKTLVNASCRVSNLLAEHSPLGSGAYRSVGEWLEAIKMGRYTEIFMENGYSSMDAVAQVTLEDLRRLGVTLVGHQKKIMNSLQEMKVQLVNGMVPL

Sequence of Mitogen-activated protein kinase 11 (Homo sapiens) (Q15759 whole entry): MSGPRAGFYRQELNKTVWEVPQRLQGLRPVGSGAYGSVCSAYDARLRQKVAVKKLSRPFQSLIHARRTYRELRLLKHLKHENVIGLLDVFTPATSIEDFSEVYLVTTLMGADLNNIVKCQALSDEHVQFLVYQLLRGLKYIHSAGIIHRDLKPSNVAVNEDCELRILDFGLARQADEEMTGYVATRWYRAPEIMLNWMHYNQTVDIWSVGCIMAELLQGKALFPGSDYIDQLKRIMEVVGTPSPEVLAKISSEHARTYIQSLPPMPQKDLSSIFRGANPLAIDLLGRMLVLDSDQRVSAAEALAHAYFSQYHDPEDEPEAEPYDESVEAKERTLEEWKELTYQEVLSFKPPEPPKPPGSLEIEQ
Sequence of Calcium/calmodulin-dependent protein kinase type 1 (Homo sapiens) (Q14012 whole entry, looked up): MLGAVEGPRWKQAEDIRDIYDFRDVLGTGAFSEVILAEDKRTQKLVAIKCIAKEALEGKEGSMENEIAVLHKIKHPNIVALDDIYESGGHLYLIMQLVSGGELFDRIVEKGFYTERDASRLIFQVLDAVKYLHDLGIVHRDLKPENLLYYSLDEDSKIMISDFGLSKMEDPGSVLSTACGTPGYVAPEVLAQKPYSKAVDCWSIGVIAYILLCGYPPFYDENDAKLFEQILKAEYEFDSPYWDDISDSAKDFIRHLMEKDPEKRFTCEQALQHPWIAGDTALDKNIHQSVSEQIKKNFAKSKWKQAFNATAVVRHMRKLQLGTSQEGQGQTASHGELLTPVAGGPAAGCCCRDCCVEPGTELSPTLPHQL
Sequence of Serine/threonine-protein kinase Nek6 (Homo sapiens) (Q9HC98 whole entry): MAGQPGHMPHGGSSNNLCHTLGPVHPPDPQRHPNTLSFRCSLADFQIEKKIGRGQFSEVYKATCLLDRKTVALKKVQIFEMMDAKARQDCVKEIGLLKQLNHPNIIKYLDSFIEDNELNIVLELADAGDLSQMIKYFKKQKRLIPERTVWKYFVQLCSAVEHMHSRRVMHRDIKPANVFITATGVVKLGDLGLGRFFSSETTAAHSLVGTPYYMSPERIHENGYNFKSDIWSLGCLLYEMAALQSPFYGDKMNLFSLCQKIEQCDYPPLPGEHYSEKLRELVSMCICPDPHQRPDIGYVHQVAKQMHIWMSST

Row | SMILES | inhibition [1] | inhibition [2] | inhibition [3] | inhibition [4] | inhibition [5] | inhibition [6]
1 | C[C@]1(O)C[C@@H](c2nc(-c3ccc4ccc(-c5ccccc5)nc4c3)c3c(N)nccn32)C1 | 9.19% | 2.65% | -4.21% | – | – | –
2 | C[C@@]1(C(=O)Nc2ccc(F)nc2)CCCN1c1nc(Nc2cc(C3CC3)n[nH]2)c2cccn2n1 | – | – | – | 5.33% | -4.67% | -1.69%
